Test results: patent US9114149B2, “[CU(thp)4]n[X]-n compounds for the treatment of a broad range of human solid tumors, including refractory tumors” (Universita Degli Studi Di Padova, priority 2011, dated 2015)
Several values for one entry are separate records, joined by “and”; a condition that tells them apart may be missing. Identical values can stand only once. Marks after values point to notes of the source that are not given here.

Tests used:
H157 = test: MTT cytotoxicity, H157 (lung); assay type: cell-based, human; conditions: MTT test, 72 hrs
Description: (§1) The in vitro antitumor activity of CP had been deeply evaluated in several human cancer cell lines by in vitro cytotoxicity assays. CP cytotoxicity has been detected in a large panel of human cell lines derived from a wide variety of solid tumors, including refractory tumors. In Table 1, the cytotoxicity parameters IC50 (that is the median growth inhibitory concentrations calculated from dose-survival curves via MTT test) are tabulated.
(§2) Cell lines representative of lung (H157, U1810, U1285, Calu-1), pancreas (MIA PaCa-2, BxPC-3, AsPC-1, Capan-1), liver (Huh-7, Hep 3B, SK-Hep-1), oesophagus (OE33, OE21), oesophagus/gastric cardia (OE19), stomach (BGC-823, AGS), colon (HCT-116, T84, COLO 205), breast (MDA-MB-231, SK-BR-3), cervix (CaSki, C-33 A) ovarian (A2780, SK-OV-3, IGROV1), prostate (LnCaP, PC-3) cancers along with melanoma (MEWO, G361, C-32), neuroblastoma (SH-SY5Y, SK-N-AS, IMR-32) and osteosarcoma (U-2 OS, MG-63) have been treated with increasing concentration of CP for 72 hrs.

Calu-1 = test: MTT cytotoxicity, Calu-1 (lung); assay type: cell-based, human; conditions: MTT test, 72 hrs
Description: as §1, §2

SH-SY5Y = test: MTT cytotoxicity, SH-SY5Y (brain); assay type: cell-based, human; conditions: MTT test, 72 hrs
MEWO = test: MTT cytotoxicity, MEWO (skin); assay type: cell-based, human; conditions: MTT test, 72 hrs
Description: as §1, §2

CaSki = test: MTT cytotoxicity, CaSki (cervix); assay type: cell-based, human; conditions: MTT test, 72 hrs
Description: as §1, §2

A2780 = test: MTT cytotoxicity, A2780 (ovary); assay type: cell-based, human; conditions: MTT test, 72 hrs
Description: as §1, §2

[1] = system: human ovarian adenocarcinoma cells resistant (A2780cisR) to CDDP; test: Cross resistance MTT test, A2780cisR (CDDP resistant); assay type: cell-based; conditions: for IC50: A2780cisR (CDDP resistant), MTT test, 72 h, probit analysis; for R.F. (Resistant factor): IC50 resistant/parent line: A2780cisR / A2780
[2] = system: Lewis lung carcinoma (LLC); test: Early-stage treatment of LLC-bearing mice; assay type: in vivo, C57BL mice; conditions: for Average tumor weight (mean ± S.D.) / Inhibition of tumor growth: early-stage; for Average tumor weight (mean ± S.D.): day 15; for Inhibition of tumor growth: day 15, referred to control
Protocol: Body weight was measured every two days and was taken as a parameter of systemic toxicity. The X axis indicates the days after transplantation whereas the Y axis indicates the percentage of body weight changes. […] The error bars indicate the SD.
The antitumor efficacy of CP was evaluated in a model of solid tumor, the syngeneic murine Lewis Lung Carcinoma (also indicated as LLC). […] Body weight of tumor-bearing mice has been measured every two days simultaneously with antitumor analyses and was taken as a parameter of systemic toxicity.
LLC was implanted intramuscularly (i.m., 2×10^6 cells inoculum) into the right hind leg of 8-week old inbred C57BL mice (24±3 g body weight) and, after 24 h from tumor implantation, mice were randomly divided into five groups (8 animals per group, 10 controls). CP was dosed at 25, 35 and 50 mk/kg i.p. on days 3, 5, 7, 9, 11 and 13 after tumor implantation. […] At day 15, animals were sacrificed, and the inhibition of tumor growth was evaluated.

[3] = system: Lewis lung carcinoma (LLC); test: Advanced-stage treatment (1) of LLC-bearing mice; assay type: in vivo, C57BL mice; conditions: for Average tumor weight (mean ± S.D.) / Inhibition of tumor growth: advanced-stage (1); for Average tumor weight (mean ± S.D.): day 15; for Inhibition of tumor growth: day 15, referred to control; for adverse effects / body weight changes during therapy: advanced-stage treatments (1) and (2), FIGS. 2 and 3
Protocol: Body weight was measured at day 1 and every two days from day 7 and was taken as a parameter of systemic toxicity. The X axis indicates the days after transplantation whereas the Y axis indicates the percentage of body weight changes. […] The error bars indicate the SD.
The in vivo antitumor activity of CP in LLC tumor model has been further investigated by means of other protocols, such as advanced-stage treatment (1), and advanced-stage treatment (2). For upstaged or advanced stage disease, LLC tumors were allowed to establish and grow to visible (advanced-stage treatment 1) and palpable (advanced-stage treatment 2) size before the start of chemotherapy. The results shown in Table 8 and 9, attested that CP was efficacious even at the lowest dose schedules.

[4] = system: human colon adenocarcinoma cells sensitive (HCT-116); test: Cross resistance MTT test, HCT-116 (OXP sensitive); assay type: cell-based; conditions: 72 h, probit analysis
BALB/c mice = test: Acute toxicity tests in healthy BALB/c mice; assay type: in vivo; conditions: for LD50: BALB/c mice, observed 24 hrs
Protocol: (§3) The acute toxicity was assessed by treating BALB/c or C57BL mice with a single intraperitoneal (i.p.) or endovenous (e.v.) administration of different amounts, i.e. 3.125, 6.25, 12.5, 25, 50, 100 and 200 mg/kg of tested compounds.
(§4) To preliminarily establish the toxicity profile of CP, acute and repeat-dose toxicity studies were performed in BALB/c mice and in C57BL mice.

C57BL mice = test: Acute toxicity tests in healthy C57BL mice; assay type: in vivo; conditions: observed 24 hrs
Protocol: as §3, §4

L1210 murine leukemia = test: Antitumor efficacy in murine leukemia; assay type: in vivo; conditions: established animal leukaemia
Protocol: (§5) The detection of drug uptake by tumor cells in animal models clearly attest that CP efficiently and selectively accumulates in the solid tumor mass.
The antitumor efficacy of CP was evaluated in L1210 murine leukemia and in mouse Lewis Lung carcinoma (LLC).

[5] = system: human leukemic cell lines; test: Cytotoxicity against human leukemic cell lines; assay type: cell-based; conditions: several human leukemic cell lines
Description: as §5

[6] = system: human cancer cell lines derived from solid tumors; test: MTT cytotoxicity, whole panel of human solid tumor cell lines; assay type: cell-based; conditions: Table 1 panel, maximum
Description: as §1, §2
In colon, liver, brain, ovary and prostate cell line panels IC50 values in the submicromolar range have been obtained.

Solubility in water = assay type: physicochemical
[7] = system: human colon adenocarcinoma cells resistant (HCT-116 OXP) to OXP
[8] = system: human cancer versus human normal cells
[9] = system: CDDP resistant and OXP resistant human cancer cells
[10] = 1.5 mg/kg ip days 3, 5, 7, 9, 11, 13
[11] = 1.5 mg/kg i.p. daily from day 7
[12] = 35 mg/kg ip days 3, 5, 7, 9, 11, 13
[13] = 50 mg/kg ip days 3, 5, 7, 9, 11, 13
[14] = human non-tumor versus malignant cells

N.N.[Cl][Pt][Cl] [CDDP, cis-diamminodichloro platinum(II)]
IC50 (H157): 5990 ± 2710 nM
IC50 (Calu-1): 9650 ± 2130 nM
IC50 (SH-SY5Y): 5160 ± 1230 nM
IC50 (MEWO): 6760 ± 1470 nM
IC50 (CaSki): 31100 ± 2970 nM
IC50 (A2780): 1250 ± 1010 nM
IC50 [1]: 13100 ± 2300 nM
R.F. (Resistant factor) [1]: 5.3
body weight loss ([2]; early-stage LLC mice, 1.5 mg/kg, after the sixth administration (FIG. 1)): about 30%
Average tumor weight (mean ± S.D.) [2, 10]: 0.168 ± 0.10 g
Inhibition of tumor growth [2, 10]: 73.66%
Average tumor weight (mean ± S.D.) [3, 11]: 0.061 ± 0.03 g
Inhibition of tumor growth [3, 11]: 87.84%
adverse effects / body weight changes during therapy [3]: substantial weight loss

F[P-](F)(F)(F)(F)F.OC[P+](CO)(CO)[Cu-3]([P+](CO)(CO)CO)([P+](CO)(CO)CO)[P+](CO)(CO)CO [CP, [Cu(thp)4][PF6]]
IC50 (H157): 1510 ± 660 nM
IC50 (Calu-1): 910 ± 450 nM
IC50 (SH-SY5Y): 660 ± 120 nM
IC50 (MEWO): 1130 ± 740 nM
IC50 (CaSki): 3160 ± 1450 nM
IC50 (A2780): 990 ± 420 nM
IC50 [1]: 2100 ± 1200 nM
R.F. (Resistant factor) [1]: 1.2
IC50 [4]: 1400 ± 500 nM
LD50 relative to that recorded with CDDP (BALB/c mice; BALB/c and C57BL mice (Table 5)): about one order of magnitude higher
LD50 (BALB/c mice; single e.v. administration): 135^b mg/kg
LD50 (BALB/c mice; single i.p. administration): 150^a mg/kg
LD50 (C57BL mice; single e.v. administration): 115^b mg/kg
LD50 (C57BL mice; single i.p. administration): 125^a mg/kg
body weight loss compared with the non-treated group ([2]; early-stage LLC mice, even at the highest doses (FIG. 1)): no significant body weight loss
Average tumor weight (mean ± S.D.) ([2]; 25 mg/kg ip days 3, 5, 7, 9, 11, 13): 0.473 ± 0.12 g
Inhibition of tumor growth ([2]; 25 mg/kg ip days 3, 5, 7, 9, 11, 13, 25 mg/kg): 26% and 25.86%
Average tumor weight (mean ± S.D.) [2, 12]: 0.273 ± 0.04 g
Inhibition of tumor growth [2, 12]: 57.21%
Average tumor weight (mean ± S.D.) [2, 13]: 0.113 ± 0.04 g
Inhibition of tumor growth [2, 13]: 82.28%
Average tumor weight (mean ± S.D.) ([3]; 30 mg/kg i.p. daily from day 7): 0.088 ± 0.03 g
Inhibition of tumor growth ([3]; 30 mg/kg i.p. daily from day 7): 82.37%
Average tumor weight (mean ± S.D.) ([3]; 50 mg/kg i.p. daily from day 7): 0.071 ± 0.02 g
Inhibition of tumor growth ([3]; 50 mg/kg i.p. daily from day 7): 85.85%
adverse effects / body weight changes during therapy [3]: did not induce any adverse effects
antitumor efficacy against animal leukaemia (L1210 murine leukemia): failed to show significant antitumor efficacy
cytotoxicity against human leukemic cell lines [5]: high cytotoxicity
fold more cytotoxic than CDDP [6]: up to 50 fold
fold more cytotoxic than OXP [6]: ≤ 30 fold
solubility in water (Solubility in water): excellent solubility in water
IC50 ([7]; HCT-116 OXP (OXP resistant), MTT test, 72 h, probit analysis): 1900 ± 700 nM
R.F. (Resistant factor) ([7]; IC50 resistant/parent line: HCT-116 OXP / HCT-116): 1.4
Selectivity index (SI) ([8]; average IC50 towards normal cells divided by average IC50 for the malignant cells): 32.4
SI fold higher than CDDP [8, 14]: about 2 fold
SI fold higher than OXP [8, 14]: ~3 fold
IC50 fold lower than the reference metallodrugs ([9]; Table 2 cell lines, maximum): up to 15 fold
antitumor activity levels on sensitive versus resistant cell lines ([9]; sensitive and resistant cell line pairs): very similar
